Experimental findings from patent publication US7192924B2, “Corticotropin releasing factor 2 receptor agonists” (priority 2002, dated 2007) are described below.

Experiment [1] addresses T1, CRF2R (Homo sapiens, UniProt Q13324).
T1 sequence (Q13324 1-411): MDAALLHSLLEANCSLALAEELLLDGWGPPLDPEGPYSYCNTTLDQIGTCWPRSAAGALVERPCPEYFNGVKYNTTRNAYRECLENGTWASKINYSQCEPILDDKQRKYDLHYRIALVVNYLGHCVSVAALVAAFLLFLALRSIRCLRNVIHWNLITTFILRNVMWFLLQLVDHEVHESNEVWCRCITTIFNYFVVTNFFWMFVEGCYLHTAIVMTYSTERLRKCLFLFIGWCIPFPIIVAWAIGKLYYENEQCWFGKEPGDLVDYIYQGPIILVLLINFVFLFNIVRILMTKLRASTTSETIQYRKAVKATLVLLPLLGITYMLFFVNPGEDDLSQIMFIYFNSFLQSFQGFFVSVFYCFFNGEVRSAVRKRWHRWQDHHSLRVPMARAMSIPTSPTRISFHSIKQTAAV
Briefly: CRF2R agonist activity (EC50, Emax), called comparative CRF binding. The format is cell-based. To be noted: read-out: CRF2R EC50. The method in brief: (§1)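 Peptides were applied to cells carrying a single CRFR subtype, then cAMP levels or CRE-driven reporter expression were quantified against vehicle-treated cells.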

The target in experiment [2] is T2, CRF1R (Homo sapiens, UniProt P34998).
T2 sequence (P34998 24-415): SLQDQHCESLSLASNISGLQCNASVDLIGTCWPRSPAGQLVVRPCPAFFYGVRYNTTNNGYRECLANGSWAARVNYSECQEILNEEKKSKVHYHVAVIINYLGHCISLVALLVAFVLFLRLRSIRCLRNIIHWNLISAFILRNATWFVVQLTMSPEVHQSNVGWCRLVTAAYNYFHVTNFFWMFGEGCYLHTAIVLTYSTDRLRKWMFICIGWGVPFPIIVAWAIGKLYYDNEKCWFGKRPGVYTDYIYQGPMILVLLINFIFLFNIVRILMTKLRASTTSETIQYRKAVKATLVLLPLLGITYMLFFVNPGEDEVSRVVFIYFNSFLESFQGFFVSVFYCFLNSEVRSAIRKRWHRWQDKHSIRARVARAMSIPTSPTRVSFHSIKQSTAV
Briefly: CRF1R agonist activity (EC50, Emax), called comparative CRF binding. The class given is cell-based. To be noted: read-out: CRF1R EC50. The gist of the method: as §1

Ends that are not written are not given here. Some results are limits rather than exact numbers.

On to “NDDPPISIDLPLFLLRNMIEMARIENEREQAGLNAKYLAEV-NH2 [compound 257]”, for which the EC50 (in general, the midpoint of the concentration-response curve) in experiment [1] was at least 100 nM; in experiment [2], 745 nM.

Take “NDDPPISIDLPLHLLRNMIEMARIENEREQAGLNAKYLAEV-NH2 [compound 259]”: the EC50 in experiment [1] is at least 100 nM; in experiment [2] it was 820 nM.

In the case of “SQEPPISLDLTFHLLREVLEQARARAAREQATTNARILARV-NH2 [compound 157]”, the EC50 in experiment [1] was 42 nM; in experiment [2], at least 100 nM.
